Experimental data from the NIST ThermoML archive (doi:10.1021/je030107c).
Values joined by “and” are separate entries in the source; they are usually repeats but may differ in a detail not shown here. Equal entries are not always repeated. ± gives the expanded uncertainty stated by the source.

Experiment: refractive index (Na D-line) (dimensionless)
Conditions: 298.15 K; 101.33 kPa; Liquid; Standard Abbe refractometry

In order of falling refractive index:
1. OCCO [1,2-ethanediol]  1.4307 ± 0.0011
2. CCCCN(CCCC)CCCC [tributylamine]  1.4274 ± 0.0011
3. C1COCCO1 [1,4-dioxane]  1.4201 ± 0.0011
4. CCN(CC)CC [triethylamine]  1.3983 ± 0.001
5. CCCCCC [hexane]  1.3728 ± 0.0011

Same assay, conditions: 303.15 K; 101.33 kPa; Liquid; Standard Abbe refractometry

In order of rising refractive index:
1. CCCCCC [hexane]  1.3698 ± 0.0011
2. CCN(CC)CC [triethylamine]  1.3955 ± 0.001
3. C1COCCO1 [1,4-dioxane]  1.417 ± 0.0011
4. CCCCN(CCCC)CCCC [tributylamine]  1.4251 ± 0.0011
5. OCCO [1,2-ethanediol]  1.4269 ± 0.0011

Same assay, conditions: 308.15 K; 101.33 kPa; Liquid; Standard Abbe refractometry

In order of rising refractive index:
1. CCCCCC [hexane]  1.367 ± 0.0011
2. CCN(CC)CC [triethylamine]  1.3926 ± 0.001
3. C1COCCO1 [1,4-dioxane]  1.4143 ± 0.0011
4. CCCCN(CCCC)CCCC [tributylamine]  1.4226 ± 0.0011
5. OCCO [1,2-ethanediol]  1.4246 ± 0.0011

Experiment: refractive index (Na D-line) (dimensionless); xn = mol fraction of the nth substance listed
Conditions: 298.15 K; 101.3 kPa; Liquid; Standard Abbe refractometry; x1 = 1

In order of falling refractive index:
1. C1COCCO1 [1,4-dioxane] + CCN(CC)CC  1.4201 ± 0.0011
2. C1COCCO1 [1,4-dioxane] + CCCCN(CCCC)CCCC  1.4201 ± 0.0011

Same assay, conditions: 298.15 K; 101.3 kPa; Liquid; Standard Abbe refractometry; x2 = 0

In order of falling refractive index:
1. OCCO [1,2-ethanediol] + C1COCCO1  1.4307 ± 0.0011
2. CCCCCC [hexane] + C1COCCO1  1.3728 ± 0.0011

Same assay, conditions: 303.15 K; 101.3 kPa; Liquid; Standard Abbe refractometry; x1 = 1

In order of falling refractive index:
1. C1COCCO1 [1,4-dioxane] + CCN(CC)CC  1.417 ± 0.0011
2. C1COCCO1 [1,4-dioxane] + CCCCN(CCCC)CCCC  1.417 ± 0.0011

Same assay, conditions: 303.15 K; 101.3 kPa; Liquid; Standard Abbe refractometry; x2 = 0

In order of falling refractive index:
1. OCCO [1,2-ethanediol] + C1COCCO1  1.4269 ± 0.0011
2. CCCCCC [hexane] + C1COCCO1  1.3698 ± 0.0011

Same assay, conditions: 308.15 K; 101.3 kPa; Liquid; Standard Abbe refractometry; x1 = 1

In order of falling refractive index:
1. C1COCCO1 [1,4-dioxane] + CCN(CC)CC  1.4143 ± 0.0011
2. C1COCCO1 [1,4-dioxane] + CCCCN(CCCC)CCCC  1.4143 ± 0.0011

Same assay, conditions: 308.15 K; 101.3 kPa; Liquid; Standard Abbe refractometry; x2 = 0

In order of falling refractive index:
1. OCCO [1,2-ethanediol] + C1COCCO1  1.4246 ± 0.0011
2. CCCCCC [hexane] + C1COCCO1  1.367 ± 0.0011

Experiment: xn = mol fraction of the nth substance listed
Conditions: 298.15 K; 101.3 kPa; Liquid; Capillary tube (Ostwald / Ubbelohde) method; x1 = 1

In order of rising viscosity:
1. C1COCCO1 [1,4-dioxane] + CCN(CC)CC  1.166 ± 0.009 mPa·s
2. C1COCCO1 [1,4-dioxane] + CCCCN(CCCC)CCCC  1.166 ± 0.009 mPa·s

Same assay, conditions: 298.15 K; 101.3 kPa; Liquid; Capillary tube (Ostwald / Ubbelohde) method; x2 = 0

In order of falling viscosity:
1. OCCO [1,2-ethanediol] + C1COCCO1  12.62 ± 0.09 mPa·s
2. CCCCCC [hexane] + C1COCCO1  0.315 ± 0.003 mPa·s

Same assay, conditions: 298.15 K; 101.3 kPa; Liquid; Linear variable-path acoustic interferometer; x1 = 1

In order of rising speed of sound:
1. C1COCCO1 [1,4-dioxane] + CCN(CC)CC  1343 ± 3 m/s
2. C1COCCO1 [1,4-dioxane] + CCCCN(CCCC)CCCC  1343 ± 3 m/s

Same assay, conditions: 298.15 K; 101.3 kPa; Liquid; Linear variable-path acoustic interferometer; x2 = 0

In order of falling speed of sound:
1. OCCO [1,2-ethanediol] + C1COCCO1  1659 ± 3 m/s
2. CCCCCC [hexane] + C1COCCO1  1083 ± 3 m/s

Same assay, conditions: 298.15 K; 101.3 kPa; Liquid; Pycnometric method; x1 = 1

In order of falling mass density:
1. C1COCCO1 [1,4-dioxane] + CCN(CC)CC  1027.6 ± 0.6 kg/m3
2. C1COCCO1 [1,4-dioxane] + CCCCN(CCCC)CCCC  1027.6 ± 0.6 kg/m3

Same assay, conditions: 298.15 K; 101.3 kPa; Liquid; Pycnometric method; x2 = 0

In order of rising mass density:
1. CCCCCC [hexane] + C1COCCO1  654.8 ± 0.4 kg/m3
2. OCCO [1,2-ethanediol] + C1COCCO1  1111.3 ± 0.6 kg/m3

Same assay, conditions: 303.15 K; 101.3 kPa; Liquid; Capillary tube (Ostwald / Ubbelohde) method; x1 = 1

In order of rising viscosity:
1. C1COCCO1 [1,4-dioxane] + CCN(CC)CC  1.069 ± 0.008 mPa·s
2. C1COCCO1 [1,4-dioxane] + CCCCN(CCCC)CCCC  1.069 ± 0.008 mPa·s

Same assay, conditions: 303.15 K; 101.3 kPa; Liquid; Capillary tube (Ostwald / Ubbelohde) method; x2 = 0

In order of falling viscosity:
1. OCCO [1,2-ethanediol] + C1COCCO1  9.618 ± 0.066 mPa·s
2. CCCCCC [hexane] + C1COCCO1  0.299 ± 0.003 mPa·s

Same assay, conditions: 303.15 K; 101.3 kPa; Liquid; Pycnometric method; x1 = 1

In order of rising mass density:
1. C1COCCO1 [1,4-dioxane] + CCN(CC)CC  1021.9 ± 0.6 kg/m3
2. C1COCCO1 [1,4-dioxane] + CCCCN(CCCC)CCCC  1021.9 ± 0.6 kg/m3

Same assay, conditions: 303.15 K; 101.3 kPa; Liquid; Pycnometric method; x2 = 0

In order of falling mass density:
1. OCCO [1,2-ethanediol] + C1COCCO1  1107.3 ± 0.6 kg/m3
2. CCCCCC [hexane] + C1COCCO1  649.7 ± 0.4 kg/m3

Same assay, conditions: 308.15 K; 101.3 kPa; Liquid; Capillary tube (Ostwald / Ubbelohde) method; x1 = 1

In order of rising viscosity:
1. C1COCCO1 [1,4-dioxane] + CCN(CC)CC  0.984 ± 0.008 mPa·s
2. C1COCCO1 [1,4-dioxane] + CCCCN(CCCC)CCCC  0.984 ± 0.008 mPa·s

Same assay, conditions: 308.15 K; 101.3 kPa; Liquid; Capillary tube (Ostwald / Ubbelohde) method; x2 = 0

In order of falling viscosity:
1. OCCO [1,2-ethanediol] + C1COCCO1  7.539 ± 0.053 mPa·s
2. CCCCCC [hexane] + C1COCCO1  0.286 ± 0.003 mPa·s

Same assay, conditions: 308.15 K; 101.3 kPa; Liquid; Pycnometric method; x1 = 1

In order of rising mass density:
1. C1COCCO1 [1,4-dioxane] + CCN(CC)CC  1016.2 ± 0.6 kg/m3
2. C1COCCO1 [1,4-dioxane] + CCCCN(CCCC)CCCC  1016.2 ± 0.6 kg/m3

Same assay, conditions: 308.15 K; 101.3 kPa; Liquid; Pycnometric method; x2 = 0

In order of rising mass density:
1. CCCCCC [hexane] + C1COCCO1  644.8 ± 0.4 kg/m3
2. OCCO [1,2-ethanediol] + C1COCCO1  1103.5 ± 0.6 kg/m3

Experiment: not given
Conditions: 298.15 K; 101.3 kPa; Liquid; Capillary tube (Ostwald / Ubbelohde) method

In order of falling viscosity:
1. OCCO [1,2-ethanediol]  12.62 ± 0.09 mPa·s
2. CCCCN(CCCC)CCCC [tributylamine]  1.36 ± 0.011 mPa·s
3. C1COCCO1 [1,4-dioxane]  1.166 ± 0.009 mPa·s
4. CCN(CC)CC [triethylamine]  0.363 ± 0.003 mPa·s
5. CCCCCC [hexane]  0.315 ± 0.003 mPa·s

Same assay, conditions: 298.15 K; 101.3 kPa; Liquid; Linear variable-path acoustic interferometer

In order of falling speed of sound:
1. OCCO [1,2-ethanediol]  1659 ± 3 m/s
2. CCCCN(CCCC)CCCC [tributylamine]  1261 ± 3 m/s
3. CCN(CC)CC [triethylamine]  1127 ± 2 m/s
4. CCCCCC [hexane]  1083 ± 3 m/s

In the case of `C1COCCO1` [1,4-dioxane], the speed of sound is reported as 1347 ± 3 m/s and 1343 ± 3 m/s.

Same assay, conditions: 298.15 K; 101.3 kPa; Liquid; Pycnometric method

In order of rising mass density:
1. CCCCCC [hexane]  654.8 ± 0.4 kg/m3
2. CCN(CC)CC [triethylamine]  723.1 ± 0.2 kg/m3
3. CCCCN(CCCC)CCCC [tributylamine]  774.4 ± 0.4 kg/m3
4. C1COCCO1 [1,4-dioxane]  1027.6 ± 0.6 kg/m3
5. OCCO [1,2-ethanediol]  1111.3 ± 0.6 kg/m3

Same assay, conditions: 303.15 K; 101.3 kPa; Liquid; Capillary tube (Ostwald / Ubbelohde) method

In order of rising viscosity:
1. CCCCCC [hexane]  0.299 ± 0.003 mPa·s
2. CCN(CC)CC [triethylamine]  0.347 ± 0.003 mPa·s
3. C1COCCO1 [1,4-dioxane]  1.069 ± 0.008 mPa·s
4. CCCCN(CCCC)CCCC [tributylamine]  1.221 ± 0.01 mPa·s
5. OCCO [1,2-ethanediol]  9.618 ± 0.066 mPa·s

Same assay, conditions: 303.15 K; 101.3 kPa; Liquid; Pycnometric method

In order of rising mass density:
1. CCCCCC [hexane]  649.7 ± 0.4 kg/m3
2. CCN(CC)CC [triethylamine]  718.5 ± 0.3 kg/m3
3. CCCCN(CCCC)CCCC [tributylamine]  770.1 ± 0.4 kg/m3
4. C1COCCO1 [1,4-dioxane]  1021.9 ± 0.6 kg/m3
5. OCCO [1,2-ethanediol]  1107.3 ± 0.6 kg/m3

Same assay, conditions: 308.15 K; 101.3 kPa; Liquid; Capillary tube (Ostwald / Ubbelohde) method

In order of falling viscosity:
1. OCCO [1,2-ethanediol]  7.539 ± 0.053 mPa·s
2. CCCCN(CCCC)CCCC [tributylamine]  1.125 ± 0.009 mPa·s
3. C1COCCO1 [1,4-dioxane]  0.984 ± 0.008 mPa·s
4. CCN(CC)CC [triethylamine]  0.33 ± 0.003 mPa·s
5. CCCCCC [hexane]  0.286 ± 0.003 mPa·s

Same assay, conditions: 308.15 K; 101.3 kPa; Liquid; Pycnometric method

In order of falling mass density:
1. OCCO [1,2-ethanediol]  1103.5 ± 0.6 kg/m3
2. C1COCCO1 [1,4-dioxane]  1016.2 ± 0.6 kg/m3
3. CCCCN(CCCC)CCCC [tributylamine]  766.2 ± 0.4 kg/m3
4. CCN(CC)CC [triethylamine]  713.6 ± 0.3 kg/m3
5. CCCCCC [hexane]  644.8 ± 0.4 kg/m3
